Literature values as cited in patent US20030101005A1, “Crystals and structures of perosamine synthase homologs” (priority 2001, published 2003).

Molecular target: T1, His-tag RfbE fusion protein (GDP-4-keto-6-deoxy-D-mannose-4-aminotransferase) (Vibrio cholerae, UniProt Q06953)
T1 construct: His-tag
Details: substrate or cosubstrate of His-tag RfbE fusion protein

T1 sequence (Q06953 whole entry, the tested form may be a part): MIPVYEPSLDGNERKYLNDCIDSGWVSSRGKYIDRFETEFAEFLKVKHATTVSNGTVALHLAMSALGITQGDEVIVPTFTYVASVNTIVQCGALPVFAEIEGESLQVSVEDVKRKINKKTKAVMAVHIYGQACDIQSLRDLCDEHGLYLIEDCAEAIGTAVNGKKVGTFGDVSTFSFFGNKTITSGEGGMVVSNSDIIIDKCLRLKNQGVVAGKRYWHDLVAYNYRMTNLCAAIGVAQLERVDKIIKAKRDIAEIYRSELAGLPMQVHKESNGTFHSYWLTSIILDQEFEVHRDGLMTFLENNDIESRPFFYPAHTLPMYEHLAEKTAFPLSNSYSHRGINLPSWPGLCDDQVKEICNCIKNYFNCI

| Structure (SMILES) | K(m) [mM] | V(max) [nkat/mg protein] |
| --- | --- | --- |
| CC1OC(OP(=O)(O)OP(=O)(O)OCC2OC(n3cnc4c(=O)[nH]c(N)nc43)C(O)C2O)C(O)C(O)C1=O [GDP-4-keto-6-deoxy-D-mannose] | 0.06 | 38 |
| N[C@@H](CCC(=O)O)C(=O)O [L-glutamate] | 0.1 | 42 |
